Results published in patent US10173991B2, “Sulfone amide linked benzothiazole inhibitors of endothelial lipase” (BRISTOL-MYERS SQUIBB COMPANY, priority 2014, dated 2019).

Target: Endothelial lipase (EL) (Homo sapiens (Human), UniProt Q9Y5X9)
Experiment: Endothelial lipase (EL) enzymatic assay with fluorescent substrate A10070 in DMPG vesicles
Type: biochemical
Outline: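 Substrate A10070 sits in sonicated DMPG vesicles at 0.11 mole fraction. Lipase and compound preincubated 30 min, 37° C, in HEPES pH 8.0 buffer with CaCl2.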

Sequence of Endothelial lipase (EL) (Q9Y5X9 21-500): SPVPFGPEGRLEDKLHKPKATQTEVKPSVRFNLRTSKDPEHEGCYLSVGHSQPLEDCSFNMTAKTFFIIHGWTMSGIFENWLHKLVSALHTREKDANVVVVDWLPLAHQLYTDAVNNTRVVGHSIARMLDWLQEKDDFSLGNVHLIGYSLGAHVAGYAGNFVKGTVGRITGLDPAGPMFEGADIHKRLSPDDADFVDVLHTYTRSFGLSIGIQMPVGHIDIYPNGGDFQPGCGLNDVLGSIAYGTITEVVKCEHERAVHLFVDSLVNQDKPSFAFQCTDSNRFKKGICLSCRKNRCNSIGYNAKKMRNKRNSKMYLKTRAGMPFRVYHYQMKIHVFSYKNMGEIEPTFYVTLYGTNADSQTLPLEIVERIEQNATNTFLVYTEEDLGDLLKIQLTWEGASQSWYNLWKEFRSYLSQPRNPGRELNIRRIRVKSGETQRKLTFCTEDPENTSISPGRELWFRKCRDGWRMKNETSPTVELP

IC50 [nM]	SMILES
48	COCCS(=O)(=O)C(C(=O)NCC(=O)NC1(c2ccccn2)CC1)c1nc2ccc(-c3ccc(F)nc3)cc2s1 (stereo not drawn) [Example 388, 2-[6-(6-fluoropyridin-3-yl)-1,3-benzothiazol-2-yl]-2-(2-methoxyethane-sulfonyl)-N-({[1-(pyridin-2-yl)cyclopropyl]carbamoyl}methyl) acetamide]
1	CS(=O)(=O)C(C(=O)NCC(=O)NC1CC1)c1nc2cc(F)c(-c3cccc(NC(=O)OCc4ccccc4)c3)cc2s1 (stereo not drawn) [Example 550, benzyl N-{3-[2-({[(cyclopropyl-carbamoyl)methyl]carbamoyl} (methanesulfonyl)methyl)-5-fluoro-1,3-benzothiazol-6-yl]phenyl} carbamate]
13	COCCS(=O)(=O)C(C(=O)NCC(=O)NC1CC1)c1nc2ccc(-c3ccn(C)c(=O)c3)cc2s1 (stereo not drawn) [Example 316, N-[(cyclopropyl-carbamoyl)methyl]-2-(2-methoxyethane-sulfonyl)-2-[6-(1-methyl-2-oxo-1,2-dihydropyridin-4-yl)-1,3-benzothiazol-2-yl]acetamide]
55	COCCS(=O)(=O)C(C(=O)NCC(=O)NCCOC(C)C)c1nc2cc(-c3cnc(C)nc3)c(F)cc2s1 (stereo not drawn) [Example 356, 2-[6-fluoro-5-(2-methylpyrimidin-5-yl)-1,3-benzothiazol-2-yl]-2-(2-methoxyethane-sulfonyl)-N-({[2-(propan-2-yloxy)ethyl]carbamoyl}methyl)acetamide]
253	O=C(CNC(=O)C(c1nc2ccc(-c3ccc(F)nc3)cc2s1)S(=O)(=O)Cc1ccccc1F)NC1CC1 (stereo not drawn) [Example 18, N-[(cyclopropyl-carbamoyl)methyl]-2-[(2-fluorophenyl)methanesulfonyl]-2-[6-(6-fluoropyridin-3-yl)-1,3-benzothiazol-2-yl]acetamide]
131	COCCS(=O)(=O)C(C(=O)NCC(=O)NC1CC1)c1nc2cc(-c3cnc(-n4cccn4)nc3)c(F)cc2s1 (stereo not drawn) [Example 131, N-[(cyclopropyl-carbamoyl)methyl]-2-{6-fluoro-5-[2-(1H-pyrazol-1-yl)pyrimidin-5-yl]-1,3-benzothiazol-2-yl}-2-(2-methoxyethane-sulfonyl) acetamide]
5	O=C(CNC(=O)C(c1nc2cc(F)c(-c3ccc(-n4cnnn4)cc3)cc2s1)S(=O)(=O)CCC(F)(F)F)NC1CC1 (stereo not drawn) [Example 142, N-[(cyclopropyl-carbamoyl)methyl]-2-{5-fluoro-6-[4-(1H-1,2,3,4-tetrazol-1-yl)phenyl]-1,3-benzothiazol-2-yl}-2-(3,3,3-trifluoropropane-sulfonyl) acetamide]
12	CC(=O)Nc1cccc(-c2cc3nc(C(C(=O)NCC(=O)NC4CC4)S(C)(=O)=O)sc3cc2F)c1 (stereo not drawn) [Example 115, N-[(cyclopropyl-carbamoyl)methyl]-2-[5-(3-acetamidophenyl)-6-fluoro-1,3-benzothiazol-2-yl]-2-methanesulfonyl-acetamide]
3	CC(C)CS(=O)(=O)C(C(=O)NCC(=O)NC1CC1)c1nc2cc(F)c(-c3ccc(NC(=O)OCc4ccccc4)cc3)cc2s1 (stereo not drawn) [Example 49, benzyl N-{4-[2-({[(cyclopropyl-carbamoyl)methyl]carbamoyl}(2-methylpropane-sulfonyl)methyl)-5-fluoro-1,3-benzothiazol-6-yl]phenyl}carbamate]
152	CS(=O)(=O)C(C(=O)NCC(=O)NC1CC1)c1nc2ccc(-c3ccccc3)cc2s1 (stereo not drawn) [Example 608, N-[(cyclopropyl-carbamoyl)methyl]-2-methanesulfonyl-2-(6-phenyl-1,3-benzothiazol-2-yl)acetamide]
12	COCCS(=O)(=O)C(C(=O)NCC(=O)NC1CC1)c1nc2ccc(-c3ccc(=O)n(C)c3)cc2s1 (stereo not drawn) [Example 315, N-[(cyclopropyl-carbamoyl)methyl]-2-(2-methoxyethane-sulfonyl)-2-[6-(1-methyl-6-oxo-1,6-dihydropyridin-3-yl)-1,3-benzothiazol-2-yl}acetamide]
5	CC1(O)CN(C(=O)c2ccc(-c3cc4sc(C(C(=O)NCC(=O)NC5CC5)S(=O)(=O)CCC(F)(F)F)nc4cc3F)cc2)C1 (stereo not drawn) [Example 564, N-[(cyclopropyl-carbamoyl)methyl]-2-{5-fluoro-6-[4-(3-hydroxy-3-methylazetidine-1-carbonyl)phenyl]-1,3-benzothiazol-2-yl}-2-[3,3,3-trifluoropropane-sulfonyl)acetamide]
1	COCCS(=O)(=O)C(C(=O)NCC(=O)NC1CC1)c1nc2cc(F)c(-c3ccc(NC(=O)OCC(F)(F)F)cc3)cc2s1 (stereo not drawn) [Example 526, 2,2,2-trifluoroethyl N-{4-[2-({[(cyclopropyl-carbamoyl)methyl]carbamoyl}(2-methoxyethane-sulfonyl)methyl)-5-fluoro-1,3-benzothiazol-6-yl]phenyl} carbamate]
49	COCCS(=O)(=O)C(C(=O)NCC(=O)NCCOC(C)C)c1nc2cc(-c3ccnn3C)c(F)cc2s1 (stereo not drawn) [Example 357, 2-[6-fluoro-5-(1-methyl-1H-pyrazol-5-yl)-1,3-benzothiazol-2-yl]-2-(2-methoxyethane-sulfonyl)-N-({[2-(propan-2-yloxy)ethyl]carbamoyl}methyl)acetamide]
38	COCCS(=O)(=O)C(C(=O)NCC(=O)NC1CC1)c1nc2cc(-c3cnc(F)c(C)c3)ccc2s1 (stereo not drawn) [Example 78, N-[(cyclopropyl-carbamoyl)methyl]-2-[5-(6-fluoro-5-methylpyridin-3-yl)-1,3-benzothiazol-2-yl]-2-(2-methoxyethane-sulfonyl) acetamide]
50	COCCS(=O)(=O)C(C(=O)NCC(=O)NC1CC1)c1nc2ccc(-c3ccc(C(=O)N4CCOCC4)cc3)cc2s1 (stereo not drawn) [Example 309, N-[(cyclopropyl-carbamoyl)methyl]-2-(2-methoxyethane-sulfonyl)-2-{6-[4-(morpholine-4-arbonyl)phenyl]-1,3-benzothiazol-2-yl}acetamide]
19	COCCNC(=O)c1ccc(-c2ccc3nc(C(C(=O)NCC(=O)NC4CC4)S(=O)(=O)c4ccc(F)cc4)sc3c2)cc1 (stereo not drawn) [Example 450, 4-[2-({[(cyclopropyl-carbamoyl)methyl]carbamoyl}(4-fluorobenzene-sulfonyl)methyl)-1,3-benzothiazol-6-yl]-N-(2-methoxyethyl) benzamide]
73	COc1cc(-c2ccc3nc(C(C(=O)NCC(=O)NC4CC4)S(=O)(=O)c4ccc(F)cc4)sc3c2)ccn1 (stereo not drawn) [Example 454, N-[(cyclopropyl-carbamoyl)methyl]-2-(4-fluorobenzene-sulfonyl)-2-[6-(2-methoxypyridin-4-yl)-1,3-benzothiazol-2-yl]acetamide]
31	COCCS(=O)(=O)C(C(=O)NCC(=O)NC1CC1)c1nc2ccc(-c3cnn(CC(C)(C)O)c3)cc2s1 (stereo not drawn) [Example 110, N-[(cyclopropyl-carbamoyl)methyl]-2-{6-[1-(2-hydroxy-2-methylpropyl)-1H-pyrazol-4-yl]-1,3-enzothiazol-2-yl}-2-(2-methoxyethane-sulfonyl) acetamide]
16	COCCS(=O)(=O)C(C(=O)NCC(=O)NC1CC1)c1nc2cc(-c3cncnc3)ccc2s1 (stereo not drawn) [Example 335, N-[(cyclopropyl-carbamoyl)methyl]-2-(2-methoxyethane-sulfonyl)-2-[5-(pyrimidin-5-yl)-1,3-benzothiazol-2-yl]acetamide]
19	Cc1cc2nc(C(C(=O)NCC(=O)NC3CC3)S(=O)(=O)C(C)C)sc2cc1-c1ccc2c(c1)C(=O)NC2 (stereo not drawn) [Example 258, N-[(cyclopropyl-carbamoyl)methyl]-2-[5-methyl-6-(3-oxo-2,3-dihydro-1H-isoindol-5-yl)-1,3-benzothiazol-2-yl]-2-(propane-2-sulfonyl) acetamide]
4	COC(=O)Nc1ccc(-c2cc3sc(C(C(=O)NCC(=O)NC4CC4)S(C)(=O)=O)nc3cc2F)c(C)c1 (stereo not drawn) [Example 34, methyl N-{4-[2-({[(cyclopropyl-carbamoyl)methyl]carbamoyl} (methanesulfonyl)methyl)-5-fluoro-1,3-benzothiazol-6-yl]-3-methylphenyl} carbamate]
7	COCCS(=O)(=O)C(C(=O)NCC(=O)NC1CC1)c1nc2ccc(-c3ccc(N(C)C(=O)OC)cc3)cc2s1 (stereo not drawn) [Example 25, methyl N-{4-[2-({[(cyclopropyl-carbamoyl)methyl]carbamoyl}(2-methoxyethane-sulfonyl)methyl)-1,3-benzothiazol-6-yl]phenyl}-N-methylcarbamate]
4	COCCS(=O)(=O)C(C(=O)NCC(=O)NC1CC1)c1nc2cc(F)c(-c3ccc(-c4nnc(C)o4)cc3)cc2s1 (stereo not drawn) [Example 147, N-[(cyclopropyl-carbamoyl)methyl]-2-{5-fluoro-6-[4-(5-methyl-1,3,4-oxadiazol-2-yl)phenyl]-1,3-benzothiazol-2-yl}-2-(2-methoxyethane-sulfonyl) acetamide]
1	O=C(CNC(=O)C(c1nc2cc(-c3ccc(NC(=O)OCc4ccccc4)cc3)c(F)cc2s1)S(=O)(=O)C1CC1)NC1CC1 (stereo not drawn) [Example 11, benzyl N-(4-{2-[(cyclopropane-sulfonyl) ({[(cyclopropyl-carbamoyl)methyl]carbamoyl})methyl]6-fluoro-1,3-benzothiazol-5-yl}phenyl) carbamate]
12	COCCS(=O)(=O)C(C(=O)NCC(=O)NC1CC1)c1nc2cc(C(=O)OC(C)(C)C)c(F)cc2s1 (stereo not drawn) [Example 428, tert-butyl 2-({[(cyclopropyl-carbamoyl)methyl]carbamoyl}(2-methoxyethane-sulfonyl)methyl)-6-fluoro-1,3-benzothiazole-5-carboxylate]

SMILES	IC50 [nM]
CC(C)S(=O)(=O)C(C(=O)NCC(=O)NC1CC1)c1nc2cc(F)c(-c3cn(C)c(=O)c4ccccc34)cc2s1 (stereo not drawn) [Example 233, N-[(cyclopropyl-carbamoyl)methyl]-2-[5-fluoro-6-(2-methyl-1-oxo-1,2-dihydro-isoquinolin-4-yl)-1,3-benzothiazol-2-yl]-2-(propane-2-sulfonyl) acetamide]	26
